These results are taken from patent publication US20220040263A1, “COMPANION DIAGNOSTIC FOR COMBINATION LENALIDOMIDE AND ERYTHROPOIETIN TREATMENT” (H. Lee Moffitt Cancer Center and Research Institute, Inc., priority 2016, published 2022).

Assay [1] relates to Jak2 and STAT5 phosphorylation in UT7 cells. Nature of the assay: Jak2 and STAT5 phosphorylation in UT7 cells with JAK or Src kinase inhibitors (Western). It counts as cell-based. The method, then:
10×10^7 UT7 cells were serum starved then treated with SKI 606 or AG490 for 30 minutes, CC5013 for 2 hours, and stimulated with EPO (1 U/ml) for 10 minutes at 37° C. Cells were lysed and […] run on a 4-15% Gradient gel (Bio-rad). Antibodies included p-STAT5 (Upstate, 1:1000 in 5% TBS/milk), total STAT5 (Cell Signaling, 1:10000 in 5% TBS/milk), and p-Jak2 (Santa Cruz, 1:500 in 5% TBS/milk). Blots were developed with an ECL detection kit (Amersham).
To further evaluate the mechanism by which lenalidomide enhances the EPO-R signal, STAT5 activation was assessed in response to EPO+lenalidomide treatment using selective pharmacologic inhibitors of JAK (AG490) or Src ([…]) kinases [FIG. 4].

Assay [2] concerns MDS BM-MNC. Nature of the assay: Clonogenic (colony forming) assay of MDS BM-MNC pretreated with lenalidomide, plated with EPO. It counts as cell-based, human. The method, then:
FIGS. 1A and 1B show Lenalidomide potentiates clonogenic response to […]. […] Colonies were scored after 14 days incubation and the growth of bone marrow colony-forming unit granulocyte, erythroid, macrophage, megakaryocyte (CFU-GEMM); burst-forming unit-erythroid (BFU-E); and colony-forming unit granulocyte-macrophage (CFU-GM) assessed. […] Cells were then plated in methylcellulose+10% FBS, 2000 cells/well, with or without erythropoietin (EPO). Colonies were scored at day seven.
To investigate the mechanism by which lenalidomide promotes erythropoiesis, the effect of lenalidomide on erythroid progenitor colony forming capacity was evaluated in lower risk patients [FIG. 1A]. Two-hour exposure to lenalidomide prior to initiation of BM-MNC in methylcellulose culture enhanced BFU-E formation over a concentration range of 0.001-1.0 μM. […] Erythroid progenitor cell lines were next evaluated to identify a model for investigation of the mechanism of lenalidomide's erythroid promoting effect.

In assay [3] the test system is STAT5. Nature of the assay: STAT5 phosphorylation in UT7 cells by Western immunoblot. It counts as cell-based. The method, then: FIGS. 2A and 2B show potentiation of STAT 5 activation by lenalidomide. […] Whole cell lysates were assayed for actin (Sigma), STAT5 and phospho-STAT5 (Cell Signaling) by Western immunoblot as previously described. […] K562 leukemia cells served as a positive control.
To determine if lenalidomide modulates EPO-R signaling to enhance cytokine induced clonogenic response, STAT5 phosphorylation and its nuclear trans-activation was evaluated after treatment with either lenalidomide or EPO alone, or the combination [FIG. 2A].

Assay [4] concerns the target T1, rhu-CD45 (Homo sapiens, UniProt P08575).
T1 construct: purchased Calbiochem
T1 sequence (P08575 26-1306): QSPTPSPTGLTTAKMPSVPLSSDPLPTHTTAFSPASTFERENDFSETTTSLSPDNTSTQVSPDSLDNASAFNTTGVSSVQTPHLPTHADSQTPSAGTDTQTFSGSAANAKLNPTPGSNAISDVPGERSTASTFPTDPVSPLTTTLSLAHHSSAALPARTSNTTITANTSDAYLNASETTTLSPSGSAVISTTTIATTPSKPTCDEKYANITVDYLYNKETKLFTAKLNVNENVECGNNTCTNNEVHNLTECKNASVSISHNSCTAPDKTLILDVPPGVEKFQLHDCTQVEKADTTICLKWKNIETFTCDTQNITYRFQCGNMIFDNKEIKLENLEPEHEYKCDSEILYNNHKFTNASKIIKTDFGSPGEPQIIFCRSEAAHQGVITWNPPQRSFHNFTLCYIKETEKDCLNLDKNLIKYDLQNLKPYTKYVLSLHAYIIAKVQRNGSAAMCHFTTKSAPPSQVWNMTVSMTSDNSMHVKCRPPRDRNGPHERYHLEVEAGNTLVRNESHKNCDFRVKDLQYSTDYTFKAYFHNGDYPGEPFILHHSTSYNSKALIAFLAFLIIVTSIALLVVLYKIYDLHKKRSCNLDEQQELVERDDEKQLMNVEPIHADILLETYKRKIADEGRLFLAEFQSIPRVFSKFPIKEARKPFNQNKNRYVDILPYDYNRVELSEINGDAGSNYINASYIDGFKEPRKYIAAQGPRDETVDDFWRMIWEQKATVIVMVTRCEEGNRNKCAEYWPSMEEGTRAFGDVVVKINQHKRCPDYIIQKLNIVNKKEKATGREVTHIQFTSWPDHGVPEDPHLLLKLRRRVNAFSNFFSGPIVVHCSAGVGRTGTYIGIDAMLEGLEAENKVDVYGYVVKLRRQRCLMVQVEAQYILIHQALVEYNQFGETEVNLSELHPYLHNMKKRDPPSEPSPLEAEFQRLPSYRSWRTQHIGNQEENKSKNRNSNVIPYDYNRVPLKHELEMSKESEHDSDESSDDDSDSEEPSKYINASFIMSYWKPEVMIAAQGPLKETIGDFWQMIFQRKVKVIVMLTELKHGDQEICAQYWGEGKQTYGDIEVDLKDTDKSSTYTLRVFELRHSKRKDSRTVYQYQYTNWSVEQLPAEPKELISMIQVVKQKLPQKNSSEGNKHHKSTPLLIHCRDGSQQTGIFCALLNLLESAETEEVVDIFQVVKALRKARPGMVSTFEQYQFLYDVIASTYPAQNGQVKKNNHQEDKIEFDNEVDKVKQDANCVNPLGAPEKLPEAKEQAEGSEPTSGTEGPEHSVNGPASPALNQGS
Kind of assay: BIOMOL Green CD45 Tyrosine Phosphatase Assay. It counts as biochemical. Conditions: recombinant CD45, substrate pp60c-Src, read-out: inhibition of CD45 PTP activity. The protocol:
CD45-specific PTP activity was assayed as outlined in the BIOMOL Green™ CD45 Tyrosine Phosphatase Assay Kit. Briefly, 75 U of rhu-CD45 (Calbiochem) was incubated for 1H at 37° C. with the indicated inhibitors (1 μM CC5013 and thalidomide, 100 μM Na Orthovanadate, and 50 μM RWJ-60475 (CD45-specific PTP inhibitor) in 1× assay buffer. The substrate pp60c-Src was added at 200 μM and incubated for 1H at 37° C. Samples were read on a plate reader at 620 nm. Percent PTP activity was calculated according to the equation (OD of test sample/OD of control)×100.
This notion is in agreement with findings that lenalidomide suppressed cytosolic release of Csk that is dependent upon dephosphorylation of the Cbp/PAG Csk docking site (Tyr314) by CD45. To determine if lenalidomide inhibits CD45 phosphatase, recombinant CD45 PTP inhibition by lenalidomide and thalidomide was compared to the pan-PTP inhibitor sodium orthovanadate and the CD45-selective inhibitor, RWJ-60475 using the Biomol CD45 phosphatase assay. […] [FIG. 7].

[5] abbreviates: two-hour exposure prior to methylcellulose culture.

`Nc1cccc2c1CN(C1CCC(=O)NC1=O)C2=O` (centres unmarked) [lenalidomide, 3-(4-amino-1-oxo-1,3-dihydro-2H-isoindol-2-yl)piperidine-2,6-dione]: the “EPO-induced Jak2-phosphorylation” value in assay [1] (lenalidomide + EPO (Lane 7)) is given as “further augmented”. Further, the Jak2-phosphorylation entry in assay [1] (lenalidomide alone (Lane 2)) is “increased”. Besides, in assay [2] (setting [5]), the “growth of multipotent progenitors (CFU-GEMM)” value is “unchanged” and the “growth of myeloid progenitors (CFU-GM)” value is “unchanged”. The “concentration range over which BFU-E formation was enhanced” value in assay [2] (two-hour exposure prior to methylcellulose culture with EPO, lower risk MDS BM-MNC) was in the range of 0.001 to 1.0 µM. Moreover, the “EPO-induced phosphorylation of STAT5” value in assay [3] (Western immunoblot, lenalidomide followed by EPO) is on record as “increased”. The STAT5 phosphorylation entry in assay [3] (lenalidomide alone) is recorded as “no effect”. Besides, in assay [4], the inhibition at 1 µM was about 50%.
